pIC50: −log10 of the molar value.
Tests used:
HCT-116 = test: Cytotoxicity against HCT116 human colon tumor cell line; format: functional, cell-based
Nucleic Acid [1] = test: Concentration of drug which induced cleavage of 50% of PM2 supercoiled DNA in the absence of beta-mercaptoethanol; format: functional
Nucleic Acid [2] = test: Concentration of drug which induced cleavage of 50% of PM2 supercoiled DNA in the presence of beta-mercaptoethanol; format: functional

Work on `C=C(OC)C(=O)Nc1cc(OC)c(OC)cc1C(=O)O[C@H]1C[C@H](O[C@@H]2C(=O)C(NC(=O)OC)=C3/C(=C\CSSSC)[C@]2(O)C#C/C=C\C#C[C@@H]3O[C@@H]2O[C@H](C)[C@@H](NO[C@H]3C[C@H](O)[C@H](SC)[C@@H](C)O3)[C@H](O)[C@H]2O[C@H]2C[C@H](OC)[C@@H](NC(C)C)CO2)O[C@@H](C)[C@H]1O` [ESPERAMICIN A1] yielded a pIC50 (HCT-116) of 12.00, a Cleavage (Nucleic Acid [1]) of 10 µM and a Cleavage (Nucleic Acid [2]) of less than 1 µM.

`Cn1cc(NC(=O)c2cc(NC(=O)Cc3ccc(COCO[C@@]45C#C/C=C\C#C[C@H](O)C(=CCC4)C5=O)cc3)cn2C)cc1C(=O)NCCC(=N)N` gave a pIC50 (HCT-116) of 5.13, a Cleavage (Nucleic Acid [1]) of 100 µM and a Cleavage (Nucleic Acid [2]) of 10 µM.

Compound `O=C1C2=CCC[C@@]1(O)C#C/C=C\C#C[C@@H]2O` has a Cleavage (Nucleic Acid [1]) of 1000 µM and a Cleavage (Nucleic Acid [2]) of 100 µM.

With `Cn1cc(NC(=O)Cc2ccc(CO[C@H]3C#C/C=C\C#C[C@]4(O)CCC=C3C4=O)cc2)cc1C(=O)Cc1cc(C(=O)NCCC(=N)N)n(C)c1` the pIC50 (HCT-116) was 3.19, the Cleavage (Nucleic Acid [1]) was 10 µM and the Cleavage (Nucleic Acid [2]) was less than 1 µM.
